Laboratory results: publication PMC7138916 (Pharmacology Research & Perspectives, 2020)

Legend:
[1] = Rat brain and blood microdialysis at steady state; conditions: for concentration at 6 h: male, Sprague-Dawley, in vivo, iv, C m,brain, steady‐state unbound concentration in brain (right striatum), microdialysis, IV infusion, mean ± SD
[2] = cited from earlier work
MDCK cell line = test: Bidirectional permeability in parental MDCK cells; assay type: in vitro ADME, Canine; conditions: MDCK cell line, 1 μmol/L, 2 hours, 10 uM Cyclosporin A, n = 4
[3] = Bidirectional permeability in parental MDCK cells; assay type: in vitro ADME, Canine; conditions: dog, MDCK
human P-gp (MDR1) = human P-gp (MDR1) (Homo sapiens, UniProt P08183); test: Bidirectional permeability and efflux ratio in MDR1‐MDCK cells; assay type: in vitro ADME; conditions: human; for Papp A→B at 2 h, 1 μmol/L / Papp B→A at 2 h, 1 μmol/L: MDCK-MDR1; for efflux ratio at 2 h, 1 μmol/L: MDCK-MDR1, Efflux ratio, MDR1‐MDCK cell line, P app(B–A)/P app(A–B)
[4] = Bidirectional permeability and efflux ratio in Caco‐2 cells; assay type: in vitro ADME, human; conditions: human; for Papp A→B at 2 h, 5 μmol/L / Papp B→A at 2 h, 5 μmol/L: Caco-2; for efflux ratio at 2 h, 5 μmol/L: Caco-2, Efflux ratio, Caco‐2 cell line, P app(B–A)/P app(A–B)
Caco‐2 cell line = test: as above; assay type: in vitro ADME, human; conditions: for Efflux ratio: Caco‐2 cell line, P app(B–A)/P app(A–B)
[5] = system: efflux transporters (eg, P‐gp, BCRP, MRPs); test: Classification as efflux transporter substrate; conditions: for Efflux transporter substrate: Yes/No; for Class (based on membrane permeability and ER value): parental MDCK, MDR1‐MDCK, and Caco‐2 cell lines
[6] = Rat pharmacokinetic study, IV single bolus; conditions: male, Sprague-Dawley, in vivo, iv
[7] = rat; ref 20 (Summerfield et al); cited from earlier work
[8] = Rat microdialysis at additional two brain positions; assay type: in vivo; conditions: steady state, n = 3, mean ± SD
P‐gp = conditions: cited from earlier work
human P‐gp (MDR1‐MDCK) = human P‐gp (MDR1‐MDCK) (Homo sapiens, UniProt P08183); test: Bidirectional permeability and efflux ratio in MDR1‐MDCK cells; assay type: in vitro ADME; conditions: MDR1‐MDCK cell line, P app(B–A)/P app(A–B)
MDCK‐MDR1‐NKI cell lines = conditions: cited from earlier work

Sequence of human P-gp (MDR1) (P08183 whole entry): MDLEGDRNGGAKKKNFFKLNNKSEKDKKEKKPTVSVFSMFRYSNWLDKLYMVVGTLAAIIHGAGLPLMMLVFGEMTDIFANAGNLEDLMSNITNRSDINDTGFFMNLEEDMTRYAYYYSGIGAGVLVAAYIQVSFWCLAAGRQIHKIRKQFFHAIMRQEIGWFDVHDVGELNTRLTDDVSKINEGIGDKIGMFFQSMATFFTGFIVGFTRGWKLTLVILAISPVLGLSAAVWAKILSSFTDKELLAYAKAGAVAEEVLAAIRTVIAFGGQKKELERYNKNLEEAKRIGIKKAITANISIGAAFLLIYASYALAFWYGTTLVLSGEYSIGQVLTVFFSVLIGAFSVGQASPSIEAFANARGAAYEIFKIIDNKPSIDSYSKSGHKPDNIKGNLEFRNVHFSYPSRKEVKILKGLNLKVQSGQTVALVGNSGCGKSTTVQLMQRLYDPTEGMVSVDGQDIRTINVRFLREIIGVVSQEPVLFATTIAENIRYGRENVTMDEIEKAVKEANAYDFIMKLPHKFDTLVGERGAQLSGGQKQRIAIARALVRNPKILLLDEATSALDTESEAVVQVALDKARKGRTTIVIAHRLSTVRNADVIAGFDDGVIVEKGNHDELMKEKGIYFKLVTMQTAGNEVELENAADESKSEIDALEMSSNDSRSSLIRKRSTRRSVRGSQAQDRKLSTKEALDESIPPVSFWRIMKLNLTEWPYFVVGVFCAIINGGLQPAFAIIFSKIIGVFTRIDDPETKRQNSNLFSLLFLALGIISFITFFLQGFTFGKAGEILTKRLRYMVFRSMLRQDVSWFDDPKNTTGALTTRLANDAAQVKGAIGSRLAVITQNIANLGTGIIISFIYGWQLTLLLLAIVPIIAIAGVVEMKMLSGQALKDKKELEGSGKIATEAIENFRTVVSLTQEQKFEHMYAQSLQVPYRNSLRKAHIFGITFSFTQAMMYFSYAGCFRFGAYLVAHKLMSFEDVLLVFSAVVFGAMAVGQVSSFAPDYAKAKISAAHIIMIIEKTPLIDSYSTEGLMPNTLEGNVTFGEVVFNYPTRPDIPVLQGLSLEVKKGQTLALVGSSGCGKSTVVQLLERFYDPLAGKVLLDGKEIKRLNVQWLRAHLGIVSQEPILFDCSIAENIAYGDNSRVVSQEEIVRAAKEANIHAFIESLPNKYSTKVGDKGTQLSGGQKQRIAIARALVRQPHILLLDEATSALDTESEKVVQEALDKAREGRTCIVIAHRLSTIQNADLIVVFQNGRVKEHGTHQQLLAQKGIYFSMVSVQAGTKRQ
Sequence of human P‐gp (MDR1‐MDCK) (P08183 whole entry): as above

SMILES: CC(C)NCC(O)COc1cccc2ccccc12 (stereo not shown) [Propranolol, propranolol]
- concentration at 6 h ([1]; rat): 1490 ± 240 nM
- reported mean values of rat plasma CL [2]: 68 mL/min/kg
- Average P app (MDCK cell line): about 11.0 10^−6 cm/s
- Papp A→B at 2 h, 1 μmol/L [3]: 13.7 ± 5.3 ×10⁻⁶ cm/s
- Papp B→A at 2 h, 1 μmol/L [3]: 8.37 ± 3.8 ×10⁻⁶ cm/s
- Papp at 2 h, 1 μmol/L [3]: 11 ± 5.2 ×10⁻⁶ cm/s
- Papp A→B at 2 h, 1 μmol/L (human P-gp (MDR1)): 18.9 ± 2.6 ×10⁻⁶ cm/s
- Papp B→A at 2 h, 1 μmol/L (human P-gp (MDR1)): 16.8 ± 0.5 ×10⁻⁶ cm/s
- Papp A→B at 2 h, 5 μmol/L [4]: 21.2 ± 3.6 ×10⁻⁶ cm/s
- Papp B→A at 2 h, 5 μmol/L [4]: 13.8 ± 0.5 ×10⁻⁶ cm/s
- Efflux ratio (Caco‐2 cell line): 0.654
- Efflux ratio (Caco‐2 cell line; listed as propranolol): less than 2.0
- Efflux transporter substrate [5]: No
- Class (based on membrane permeability and ER value) [5]: Class I
- Vd [6]: 4.64 ± 0.7 L/kg
- clearance [6]: 82.8 ± 12.5 mL/min/kg
- half-life [6]: 0.943 ± 0.062 h

SMILES: CNS(=O)(=O)Cc1ccc2[nH]cc(CCN(C)C)c2c1 [Sumatriptan, sumatriptan]
- concentration at 6 h ([1]; rat): 845 ± 439 nM
- Papp A→B at 2 h, 1 μmol/L [3]: 1.07 ± 0.08 ×10⁻⁶ cm/s
- Papp B→A at 2 h, 1 μmol/L [3]: 2.21 ± 0.37 ×10⁻⁶ cm/s
- Papp at 2 h, 1 μmol/L [3]: 1.64 ± 0.66 ×10⁻⁶ cm/s
- Papp A→B at 2 h, 1 μmol/L (human P-gp (MDR1)): 0.683 ± 0.04 ×10⁻⁶ cm/s
- Papp B→A at 2 h, 1 μmol/L (human P-gp (MDR1)): 1.54 ± 0.59 ×10⁻⁶ cm/s
- efflux ratio at 2 h, 1 μmol/L (human P-gp (MDR1)): 2.25
- steady‐state unbound concentration in brain lower than in plasma [7]: about 20 fold
- Papp A→B at 2 h, 5 μmol/L [4]: 0.904 ± 0.283 ×10⁻⁶ cm/s
- Papp B→A at 2 h, 5 μmol/L [4]: 1.91 ± 0.6 ×10⁻⁶ cm/s
- efflux ratio at 2 h, 5 μmol/L [4]: 2.12
- Efflux transporter substrate [5]: Yes
- Class (based on membrane permeability and ER value) [5]: Class II
- Vd [6]: 3.11 ± 0.03 L/kg
- clearance [6]: 59.1 ± 5.8 mL/min/kg
- half-life [6]: 0.98 ± 0.011 h

SMILES: CC(=O)Nc1ccc(O)cc1 [Acetaminophen]
- concentration at 6 h ([1]; rat): 3450 ± 820 nM
- Papp A→B at 2 h, 1 μmol/L [3]: 16.7 ± 0.6 ×10⁻⁶ cm/s
- Papp B→A at 2 h, 1 μmol/L [3]: 14.2 ± 0.9 ×10⁻⁶ cm/s
- Papp at 2 h, 1 μmol/L [3]: 15.5 ± 1.5 ×10⁻⁶ cm/s
- Papp A→B at 2 h, 1 μmol/L (human P-gp (MDR1)): 18.5 ± 4.6 ×10⁻⁶ cm/s
- Papp B→A at 2 h, 1 μmol/L (human P-gp (MDR1)): 14.3 ± 0.9 ×10⁻⁶ cm/s
- Papp A→B at 2 h, 5 μmol/L [4]: 19.6 ± 2.1 ×10⁻⁶ cm/s
- Papp B→A at 2 h, 5 μmol/L [4]: 19.6 ± 1.9 ×10⁻⁶ cm/s
- C m,brain ([8]; Frontal cortex): 4.79 ± 0.34 µmol/L
- C m,brain ([8]; Hypothalamus): 4.62 ± 0.82 µmol/L
- Vd [6]: 2.87 ± 1.44 L/kg
- half-life [6]: 4.96 ± 2.31 h

SMILES: Cn1c(=O)c2[nH]cnc2n(C)c1=O [Theophylline, theophylline]
- concentration at 6 h ([1]; rat): 4520 ± 2110 nM
- reported mean values of rat plasma CL [2]: 2.39 mL/min/kg
- Vd [6]: 0.453 ± 0.048 L/kg
- clearance [6]: 1.58 ± 0.52 mL/min/kg
- half-life [6]: 3.42 ± 1.02 h

SMILES: Cc1c(O)cccc1C(=O)N[C@@H](CSc1ccccc1)[C@H](O)CN1C[C@H]2CCCC[C@H]2C[C@H]1C(=O)NC(C)(C)C [neflinivir]
- permeability (P‐gp): 197 ×10⁻⁶ cm/s

SMILES: Nc1nc2[nH]cc(CCc3ccc(C(=O)N[C@@H](CCC(=O)O)C(=O)O)cc3)c2c(=O)[nH]1 [Pemetrexed, pemetrexed]
- difference in steady‐state unbound drug concentrations between the brain and blood ([1]; brain lower than blood, rat microdialysis): 86 fold
- concentration at 6 h ([1]; rat): 31.3 ± 19.3 nM
- Average P app (MDCK cell line): 0.623 10^−6 cm/s
- Papp A→B at 2 h, 1 μmol/L [3]: 0.452 ± 0.092 ×10⁻⁶ cm/s
- Papp B→A at 2 h, 1 μmol/L [3]: 0.793 ± 0.148 ×10⁻⁶ cm/s
- Papp at 2 h, 1 μmol/L [3]: 0.623 ± 0.215 ×10⁻⁶ cm/s
- Papp A→B at 2 h, 1 μmol/L (human P-gp (MDR1)): 0.709 ± 0.236 ×10⁻⁶ cm/s
- Papp B→A at 2 h, 1 μmol/L (human P-gp (MDR1)): 0.442 ± 0.252 ×10⁻⁶ cm/s
- Efflux ratio (human P‐gp (MDR1‐MDCK)): 0.623
- Efflux ratio (human P‐gp (MDR1‐MDCK); listed as pemetrexed): less than 2.0
- Papp A→B at 2 h, 5 μmol/L [4]: 0.392 ± 0.207 ×10⁻⁶ cm/s
- Papp B→A at 2 h, 5 μmol/L [4]: 0.707 ± 0.443 ×10⁻⁶ cm/s
- efflux ratio at 2 h, 5 μmol/L [4]: < 2
- Efflux ratio (Caco‐2 cell line): 1.81
- Efflux transporter substrate [5]: Yes (?)
- Class (based on membrane permeability and ER value) [5]: Class II
- Vd [6]: 0.637 ± 0.272 L/kg
- clearance [6]: 14 ± 1.8 mL/min/kg
- half-life [6]: 4.97 ± 1.15 h

SMILES: C=C[C@H]1C[N@@]2CC[C@H]1C[C@@H]2[C@@H](O)c1ccnc2ccc(OC)cc12 [Quinidine, quinidine]
- concentration at 6 h ([1]; rat): 552 ± 126 nM
- permeability (MDCK‐MDR1‐NKI cell lines): about 60 × 10^−6 cm/sec

SMILES: Cc1cc(=O)n(-c2ccccc2)n1C [Antipyrine]
- Papp A→B at 2 h, 1 μmol/L (human P-gp (MDR1)): 38.2 ± 2.1 ×10⁻⁶ cm/s
- Papp B→A at 2 h, 1 μmol/L (human P-gp (MDR1)): 25.8 ± 1.9 ×10⁻⁶ cm/s
- Papp A→B at 2 h, 5 μmol/L [4]: 36.2 ± 1.2 ×10⁻⁶ cm/s
- Papp B→A at 2 h, 5 μmol/L [4]: 25.1 ± 0.6 ×10⁻⁶ cm/s
- Efflux transporter substrate [5]: No
- Class (based on membrane permeability and ER value) [5]: Class I
- C m,brain ([8]; Frontal cortex): 3.66 ± 1.19 µmol/L
- C m,brain ([8]; Hypothalamus): 3.81 ± 0.25 µmol/L
- Vd [6]: 0.724 ± 0.051 L/kg
- clearance [6]: 4.81 ± 0.77 mL/min/kg
- half-life [6]: 1.99 ± 0.43 h

SMILES: Nc1nnc(-c2cccc(Cl)c2Cl)c(N)n1 [Lamotrigine, lamotrigine]
- concentration at 6 h ([1]; rat): 757 ± 42 nM
- C csf higher than C m,brain by ([1]; rat, steady state): 45%
- reported mean values of rat plasma CL [2]: 0.83 mL/min/kg
- Vd [6]: 1.86 ± 0.18 L/kg
- clearance [6]: 1.48 ± 0.21 mL/min/kg
- half-life [6]: 15.6 ± 3 h

SMILES: CN/C(=N/CCSCc1nc[nH]c1C)NC#N [Cimetidine]
- concentration at 6 h ([1]; rat): 1420 ± 370 nM
- Papp A→B at 2 h, 1 μmol/L [3]: 0.963 ± 0.26 ×10⁻⁶ cm/s
- Papp B→A at 2 h, 1 μmol/L [3]: 2.37 ± 0.16 ×10⁻⁶ cm/s
- Papp at 2 h, 1 μmol/L [3]: 1.67 ± 0.78 ×10⁻⁶ cm/s
- Papp A→B at 2 h, 1 μmol/L (human P-gp (MDR1)): 1.91 ± 0.93 ×10⁻⁶ cm/s
- Papp B→A at 2 h, 1 μmol/L (human P-gp (MDR1)): 3.22 ± 0.389 ×10⁻⁶ cm/s
- efflux ratio at 2 h, 1 μmol/L (human P-gp (MDR1)): < 2
- Efflux ratio (human P‐gp (MDR1‐MDCK)): 1.68
- Papp A→B at 2 h, 5 μmol/L [4]: 0.706 ± 0.204 ×10⁻⁶ cm/s
- Papp B→A at 2 h, 5 μmol/L [4]: 6.49 ± 1.37 ×10⁻⁶ cm/s
- Efflux ratio (Caco‐2 cell line): 9.20
- Efflux ratio (Caco‐2 cell line; listed as cimetidine): greater than 2.0
- ER after treatment with novobiocin (Caco‐2 cell line; Caco‐2 cells treated with novobiocin (BCRP inhibitor), supplemental data): 3.29
- Efflux transporter substrate [5]: Yes
- Class (based on membrane permeability and ER value) [5]: Class II
- Vd [6]: 3.3 ± 1.93 L/kg
- clearance [6]: 53.7 ± 4.8 mL/min/kg
- half-life [6]: 5.91 ± 4.71 h

SMILES: COc1ccc([C@@H]2Sc3ccccc3N(CCN(C)C)C(=O)[C@@H]2OC(C)=O)cc1 [Diltiazem, diltiazem]
- reported mean values of rat plasma CL [2]: 90.3 mL/min/kg
- Papp A→B at 2 h, 1 μmol/L [3]: 23.2 ± 2.6 ×10⁻⁶ cm/s
- Papp B→A at 2 h, 1 μmol/L [3]: 13.6 ± 1.3 ×10⁻⁶ cm/s
- Papp at 2 h, 1 μmol/L [3]: 18.4 ± 5.5 ×10⁻⁶ cm/s
- Papp A→B at 2 h, 1 μmol/L (human P-gp (MDR1)): 12.5 ± 3.1 ×10⁻⁶ cm/s
- Papp B→A at 2 h, 1 μmol/L (human P-gp (MDR1)): 18.7 ± 1.9 ×10⁻⁶ cm/s
- efflux ratio at 2 h, 1 μmol/L (human P-gp (MDR1)): < 2
- Efflux ratio (human P‐gp (MDR1‐MDCK)): 1.49
- Papp A→B at 2 h, 5 μmol/L [4]: 21.7 ± 2.3 ×10⁻⁶ cm/s
- Papp B→A at 2 h, 5 μmol/L [4]: 20.1 ± 2.3 ×10⁻⁶ cm/s
- Efflux ratio (Caco‐2 cell line): 0.926
- Efflux ratio (Caco‐2 cell line; listed as diltiazem): less than 2.0
- Efflux transporter substrate [5]: No
- Class (based on membrane permeability and ER value) [5]: Class I
- Vd [6]: 2.85 ± 0.3 L/kg
- clearance [6]: 97.7 ± 18.8 mL/min/kg
- half-life [6]: 0.823 ± 0.325 h
